# Biological target: NaV1.8 (Homo sapiens, UniProt Q9Y5Y9)
# Assay: Activity against NaV 1.8 channel (NaV inhibition assay)
# Type: cell-based
# Protocol: Compounds of the invention are useful as antagonists of voltage-gated sodium ion channels. Antagonist properties of test compounds were assessed as follows. Cells expressing the NaV of interest were placed into microtiter plates. After an incubation period, the cells were stained with fluorescent dyes sensitive to the transmembrane potential. The test compounds were added to the microtiter plate. The cells were stimulated with either a chemical or electrical means to evoke a NaV dependent membrane potential change from unblocked channels, which was detected and measured with trans-membrane potential-sensitive dyes. Antagonists were detected as a decreased membrane potential response to the stimulus. The optical membrane potential assay utilized voltage-sensitive FRET sensors described by Gonzalez and Tsien (See, Gonzalez, J. E. and R. Y. Tsien (1995) “Voltage sensing by fluorescence resonance energy transfer in single cells” Biophys J 69(4):1272-80, and Gonzalez, J. E. and R. Y. Tsien (1997) “Improved indicators of cell membrane potential that use fluorescence resonance energy transfer” Chem Biol 4(4):269-77) in combination with instrumentation for measuring fluorescence changes such as the Voltage/Ion Probe Reader (VIPRO®) (See, Gonzalez, J. E., K. Oades, et al. (1999) “Cell-based assays and instrumentation for screening ion-channel targets” Drug Discov Today 4(9):431-439).
# 24 hours before the assay on VIPR, CHO cells endogenously expressing a NaV1.2 type voltage-gated NaV are seeded in 96-well poly-lysine coated plates at 60,000 cells per well. Other subtypes are performed in an analogous mode in a cell line expressing the NaV of interest.
# The following is an example of how NaV1.3 inhibition activity is measured using the optical membrane potential method #2. Other subtypes are performed in an analogous mode in a cell line expressing the NaV of interest.
# HEK293 cells stably expressing NaV1.3 are plated into 96-well microtiter plates. After an appropriate incubation period, the cells are stained with the voltage sensitive dyes CC2-DMPE/DiSBAC2(3) as follows.
# Patch clamp electrophysiology was used to assess the efficacy and selectivity of sodium channel blockers in dorsal root ganglion neurons. Rat neurons were isolated from the dorsal root ganglions and maintained in culture for 2 to 10 days in the presence of NGF (50 ng/ml) (culture media consisted of NeurobasalA supplemented with B27, glutamine and antibiotics). Small diameter neurons (nociceptors, 8-12 μm in diameter) have been visually identified and probed with fine tip glass electrodes connected to an amplifier (Axon Instruments). The “voltage clamp” mode has been used to assess the compound's IC50 holding the cells at −60 mV. In addition, the “current clamp” mode has been employed to test the efficacy of the compounds in blocking action potential generation in response to current injections. The results of these experiments have contributed to the definition of the efficacy profile of the compounds.
# TTX-resistant sodium currents were recorded from DRG somata using the whole-cell variation of the patch clamp technique. Recordings were made at room temperature (˜22° C.) with thick walled borosilicate glass electrodes (WPI; resistance 3-4 MΩ) using an Axopatch 200B amplifier (Axon Instruments). After establishing the whole-cell configuration, approximately 15 minutes were allowed for the pipette solution to equilibrate within the cell before beginning recording. Currents were lowpass filtered between 2-5 kHz and digitally sampled at 10 kHz. Series resistance was compensated 60-70% and was monitored continuously throughout the experiment. The liquid junction potential (−7 mV) between the intracellular pipette solution and the external recording solution was not accounted for in the data analysis. Test solutions were applied to the cells with a gravity driven fast perfusion system (SF-77; Warner Instruments). […]
row,IC50 [µM],Compound
1,> 15,"CC(C)COC(=O)N1CCN(c2cncc(-c3ccccc3F)n2)CC1 [Compound 46, 4-[6-(2-fluorophenyl)pyrazin-2-yl]piperazine-1-carboxylic acid isobutyl ester]"
2,> 15,"CC(C)C[C@@H](O)C(=O)N1CCN(c2ccnc(-c3ccccc3F)n2)CC1 [Compound 42, 1-[4-[2-(2-fluorophenyl)pyrimidin-4-yl]piperazin-1-yl]-2-hydroxy-4-methyl-pentan-1-one]"
3,< 10,"CC(C)C[C@@H](O)C(=O)N1CCN(c2nccc(-c3ccccc3O)n2)CC1 [Compound 39, 2-hydroxy-1-[4-[4-(2-hydroxyphenyl)pyrimidin-2-yl]piperazin-1-yl]-4-methyl-pentan-1-one]"
4,> 15,"CC(C)(C)OC(=O)N[C@@H]1CCN(c2cncc(-c3ccccc3O)n2)C1 [Compound 40, [1-[6-(2-hydroxyphenyl)pyrazin-2-yl]pyrrolidin-3-yl]aminoformic acid tert-butyl ester]"
5,< 10,"CC(C)COC(=O)NC1CCN(c2cncc(-c3ccccc3C(F)F)n2)CC1 [Compound 48, [1-[6-[2-(difluoromethyl)phenyl]pyrazin-2-yl]-4-piperidyl]aminoformic acid isobutyl ester]"
6,> 15,"CC(C)C[C@@H](O)C(=O)N1CCN(c2cncc(-c3ccccc3O)n2)CC1 [Compound 38, 2-hydroxy-1-[4-[6-(2-hydroxyphenyl)pyrazin-2-yl]piperazin-1-yl]-4-methyl-pentan-1-one]"
7,< 10,"CC(C)(C)OC(=O)NC1CCN(c2cncc(-c3ccccc3O)n2)CC1 [Compound 52, [1-[6-(2-hydroxyphenyl)pyrazin-2-yl]-4-piperidyl]aminoformic acid tert-butyl ester]"
8,< 10,"CC(C)COC(=O)N[C@H]1CCN(c2cncc(-c3ccccc3C(F)F)n2)C1 [Compound 36, [1-[6-[2-(difluoromethyl)phenyl]pyrazin-2-yl]pyrrolidin-3-yl]aminoformic acid isobutyl ester]"
9,> 15,"CC(C)OC(=O)N[C@@H]1CCN(c2cncc(-c3ccccc3O)n2)C1 [Compound 41, [1-[6-(2-hydroxyphenyl)pyrazin-2-yl]pyrrolidin-3-yl]aminoformic acid isopropyl ester]"

# Continued, compound first:
row,Compound,IC50 [µM]
1,"CC(C)COC(=O)NC1CCN(c2ccnc(-c3ccccc3O)n2)CC1 [Compound 35, [1-[2-(2-hydroxyphenyl)pyrimidin-4-yl]-4-piperidyl]aminoformic acid isobutyl ester]",10 to 15
2,"CC(C)COC(=O)N1CCN(c2cc(-c3ccccc3O)ncn2)CC1 [Compound 20, 4-[6-(2-hydroxyphenyl)pyrimidin-4-yl]piperazine-1-carboxylic acid isobutyl ester]",10 to 15
3,"O=C(NC1CCN(c2ccnc(-c3ccccc3O)n2)CC1)[C@H]1CCCO1 [Compound 29, N-[1-[2-(2-hydroxyphenyl)pyrimidin-4-yl]-4-piperidyl]tetrahydrofuran-2-carboxamide]",> 15
4,"CC(C)OC(=O)N[C@@H]1CCN(c2cncc(-c3ccccc3F)n2)C1 [Compound 22, [1-[6-(2-fluorophenyl)pyrazin-2-yl]pyrrolidin-3-yl]aminoformic acid isopropyl ester]",> 15
5,"COCCOC(=O)N[C@H]1CCN(c2cncc(-c3ccccc3C(F)F)n2)C1 [Compound 11, [1-[6-[2-(difluoromethyl)phenyl]pyrazin-2-yl]pyrrolidin-3-yl]aminoformic acid 2-methoxyethyl ester]",> 15
6,"CC(C)C[C@@H](O)C(=O)N1CCN(c2ccnc(-c3ccccc3C(F)F)n2)CC1 [Compound 21, 1-[4-[2-[2-(difluoromethyl)phenyl]pyrimidin-4-yl]piperazin-1-yl]-2-hydroxy-4-methyl-pentan-1-one]",> 15
7,"CC(C)COC(=O)N1CCN(c2cncc(-c3ccccc3O)n2)CC1 [Compound 33, 4-[6-(2-hydroxyphenyl)pyrazin-2-yl]piperazine-1-carboxylic acid isobutyl ester]",< 10
8,"CC(C)COC(=O)NC1CCN(c2ccnc(-c3ccccc3C(F)F)n2)CC1 [Compound 13, [1-[2-[2-(difluoromethyl)phenyl]pyrimidin-4-yl]-4-piperidyl]aminoformic acid isobutyl ester]",< 10
9,"COCCOC(=O)NC1CCN(c2cncc(-c3ccccc3C(F)F)n2)CC1 [Compound 19, [1-[6-[2-(difluoromethyl)phenyl]pyrazin-2-yl]-4-piperidyl]aminoformic acid 2-methoxyethyl ester]",< 10
10,"CC(C)COC(=O)N1CCN(c2ccnc(-c3ccccc3O)n2)CC1 [Compound 34, 4-[2-(2-hydroxyphenyl)pyrimidin-4-yl]piperazine-1-carboxylic acid isobutyl ester]",> 15
11,"CC(C)COC(=O)N1CCN(c2ccnc(-c3ccccc3F)n2)CC1 [Compound 10, 4-[2-(2-fluorophenyl)pyrimidin-4-yl]piperazine-1-carboxylic acid isobutyl ester]",> 15
12,"CC(C)(C)OC(=O)N[C@@H]1CCN(c2cncc(-c3ccccc3F)n2)C1 [Compound 8, [1-[6-(2-fluorophenyl)pyrazin-2-yl]pyrrolidin-3-yl]aminoformic acid tert-butyl ester]",10 to 15
13,"O=C(NC1CCN(c2ccnc(-c3ccccc3F)n2)CC1)[C@H]1CCCO1 [Compound 2, N-[1-[2-(2-fluorophenyl)pyrimidin-4-yl]-4-piperidyl]tetrahydrofuran-2-carboxamide]",> 15
14,"CC(C)COC(=O)N1CCN(c2cc(-c3ccccc3F)ncn2)CC1 [Compound 23, 4-[6-(2-fluorophenyl)pyrimidin-4-yl]piperazine-1-carboxylic acid isobutyl ester]",> 15
15,"CC(C)COC(=O)NC1CCN(c2cncc(-c3ccccc3O)n2)CC1 [Compound 18, [1-[6-(2-hydroxyphenyl)pyrazin-2-yl]-4-piperidyl]aminoformic acid isobutyl ester]",< 10
16,"CC(C)COC(=O)N1CCN(c2cncc(-c3ccccc3C(F)F)n2)CC1 [Compound 15, 4-[6-[2-(difluoromethyl)phenyl]pyrazin-2-yl]piperazine-1-carboxylic acid isobutyl ester]",10 to 15
17,"COCCOC(=O)N[C@@H]1CCN(c2cncc(-c3ccccc3F)n2)C1 [Compound 27, [1-[6-(2-fluorophenyl)pyrazin-2-yl]pyrrolidin-3-yl]aminoformic acid 2-methoxyethyl ester]",> 15
18,"CC(C)COC(=O)N1CCN(c2cc(-c3ccccc3C(F)F)ncn2)CC1 [Compound 4, 4-[6-[2-(difluoromethyl)phenyl]pyrimidin-4-yl]piperazine-1-carboxylic acid isobutyl ester]",> 15
19,"CC(C)C[C@@H](O)C(=O)N1CCN(c2ccnc(-c3ccccc3O)n2)CC1 [Compound 12, 2-hydroxy-1-[4-[2-(2-hydroxyphenyl)pyrimidin-4-yl]piperazin-1-yl]-4-methyl-pentan-1-one]",10 to 15
20,"COCCOC(=O)N[C@@H]1CCN(c2cncc(-c3ccccc3O)n2)C1 [Compound 16, [1-[6-(2-hydroxyphenyl)pyrazin-2-yl]pyrrolidin-3-yl]aminoformic acid 2-methoxyethyl ester]",> 15

# From patent US7858786B2, “Pyrimidines and pyrazines useful as modulators of ion channels” (Vertex Pharmaceuticals Incoropated, priority 2005, dated 2010)
